Laboratory results published in patent US6686382B2, “Sulfonamides and derivatives thereof that modulate the activity of endothelin” (Encysive Pharmaceuticals Inc., priority 1999, dated 2004).
pIC50: −log10 of the molar value.

Experiments:
[1] = target: T1, CYP2C19 (Homo sapiens, UniProt P33261); experiment: Cytochrome P450 enzyme assay, CYP2C19 (Gentest Supersomes, fluorometric); assay type: in vitro ADME; conditions: human recombinant enzyme, mean IC50; read-out: CP450 2C19 IC50
T1 construct: purchased Gentest Corporation P259
T1 sequence (P33261 whole entry): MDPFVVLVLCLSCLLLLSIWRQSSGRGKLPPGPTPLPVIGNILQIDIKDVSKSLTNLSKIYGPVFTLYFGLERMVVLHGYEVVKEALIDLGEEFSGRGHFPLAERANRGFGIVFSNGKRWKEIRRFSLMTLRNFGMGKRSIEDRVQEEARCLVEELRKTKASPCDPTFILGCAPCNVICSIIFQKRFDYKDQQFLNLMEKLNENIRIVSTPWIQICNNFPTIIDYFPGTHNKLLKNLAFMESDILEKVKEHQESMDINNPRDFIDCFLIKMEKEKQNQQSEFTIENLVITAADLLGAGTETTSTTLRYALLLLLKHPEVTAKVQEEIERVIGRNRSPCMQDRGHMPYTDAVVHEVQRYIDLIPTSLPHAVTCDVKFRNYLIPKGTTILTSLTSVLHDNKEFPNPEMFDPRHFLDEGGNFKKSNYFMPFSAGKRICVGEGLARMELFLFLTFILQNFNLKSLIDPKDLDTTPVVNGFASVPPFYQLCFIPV
Description: (§1) In vitro assays to determine the concentration of the compounds provided herein required for 50% inhibition of substrate metabolism (IC50) by different human cytochrome P450 enzymes (2C9, 2C19, 3A4) were conducted using human recombinant cytochrome P450 enzyme assays, developed by Gentest Corporation. These assays contain Gentest Supersomes™ (specific human cytochrome P450 enzyme, co-expressed with P450 reductase and cytochrome b5), a NADPH regenerating system, substrate and a concentration range of the compounds provided herein. The fluorescent product was the measured end point for these assays. IC50s were calculated using a four-parameter logistic equation with the bottom fixed at 0% inhibition and the top fixed at 100% inhibition. (Values are the mean IC50±SD when n is greater than 1.)
(§2) Assays were conducted in 96-well microtiter plates using fluorometric assays developed by Gentest Corporation. The 12 wells in each row were used for one inhibition curve. Wells 1 to 8 contained serial 1:3 dilutions of the test compound. Wells 9 to 12 contained no inhibitor and wells 11 and 12 were blanks for background fluorescence (stop solution was added before the enzyme). All concentration curves were performed in duplicate. Incubations were initiated by the addition of enzyme and substrate to the pre-warmed reaction mixture. After a specific incubation period, the reaction was stopped by the addition of stop solution. Metabolite production per well was determined by measuring fluorescence using a fluorescent plate reader. Detailed experimental procedures for each enzyme are listed below. See, generally, Methodology of a high throughput method for measuring cytochrome P450 inhibition (Gentest Corporation, Technical Bulletin); Crespi, C. L.; Miller, V. P.; and Penman, B. W. (1997) Anal. Biochem. 248:188-190; and Geungerich, F. P. (1997) Adv. Pharm. 43:7-35.
A 0.2 ml/well reaction mixture containing 1 pmol CYP2C19 (P259), 1.3 mM NADP^+, 3.3 mM glucose-6-phosphate, 3.3 mM magnesium chloride, 0.4 U/ml glucose-6-phosphate dehydrogenase and 25 μM 3-cyano-7-ethoxycoumarin in 50 mM potassium phosphate (pH 7.4), was incubated at 37° C. for 45 minutes. Tranylcypromine, a standard inhibitor of CYP2C19, was serially diluted from the highest concentration of 500 μM and acted as a positive control. The test compound was serially diluted from the highest concentration of 100 μM. After incubation, the reaction was stopped by the addition of 75 μl stop solution (80% acetonitrile/20% 0.5 M Tris base) and fluorescence/well was read within 1 hour using a Spectra Fluor (Tecan) fluorescent plate reader. […]
(§3) The “% inhibition” was calculated as follows: [formula]
(§4) Concentration versus % inhibition curves were constructed in Prism (GraphPad, Inc.). The data was analyzed using “Top & Bottom Fixed” routine. […]

[2] = target: T2, CYP3A4 (Homo sapiens, UniProt P08684); experiment: Cytochrome P450 enzyme assay, CYP3A4 (Gentest Supersomes, fluorometric); assay type: in vitro ADME; conditions: human recombinant enzyme, mean IC50; read-out: CP450 3A4 IC50
T2 construct: purchased Gentest Corporation P202
T2 sequence (P08684 2-503 limits assumed): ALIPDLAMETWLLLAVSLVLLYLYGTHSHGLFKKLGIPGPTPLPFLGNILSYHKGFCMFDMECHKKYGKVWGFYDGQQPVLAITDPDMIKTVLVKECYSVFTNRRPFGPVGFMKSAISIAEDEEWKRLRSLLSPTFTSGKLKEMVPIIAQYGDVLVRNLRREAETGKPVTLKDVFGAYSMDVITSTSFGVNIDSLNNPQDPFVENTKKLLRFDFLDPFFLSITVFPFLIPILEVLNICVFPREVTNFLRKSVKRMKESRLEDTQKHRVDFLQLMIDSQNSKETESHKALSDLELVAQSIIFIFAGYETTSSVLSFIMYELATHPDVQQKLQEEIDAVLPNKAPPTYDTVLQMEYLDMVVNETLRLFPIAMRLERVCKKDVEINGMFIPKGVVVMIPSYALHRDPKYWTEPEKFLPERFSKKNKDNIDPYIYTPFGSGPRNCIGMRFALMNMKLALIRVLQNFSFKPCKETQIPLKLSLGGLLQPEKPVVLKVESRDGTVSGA
Description: as §1, §2
A 0.2 ml/well reaction mixture containing 4 pmol CYP3A4 (P202), 1.3 mM NADP^+, 3.3 mM glucose-6-phosphate, 3.3 mM magnesium chloride 0.4 U/ml glucose-6-phosphate dehydrogenase, 0.01% pluronic F68, and 50 μM resorufin benzyl ether in 200 mM potassium phosphate (pH 7.4), was incubated at 37° C. for 30 minutes. Ketoconazole, a standard inhibitor of 3A4, was serially diluted from the highest concentration of 5 μM and acted as a positive control. […] After incubation, the reaction was stopped by the addition of 75 μl stop solution (80% acetonitrile/20% 0.5 M Tris base) and fluorescence/well was measured within 1 hour using a Spectra Fluor (Tecan) fluorescent plate reader. […]
as §3, §4

| Compound | pIC50 [1] | pIC50 [2] |
| --- | --- | --- |
| CC(=O)c1cc(C)cc(C)c1NC(=O)c1sccc1S(=O)(=O)Nc1onc(C)c1C [Compound 7, N-(2-acetyl-4,6-dimethylphenyl)-3-{[(3,4 dimethyl-5-isoxazolyl)amino]sulfonyl}-2-thiophenecarboxamide] | 3.90 | 4.55 |
| Cc1cc(C)c(NC(=O)c2sccc2S(=O)(=O)Nc2onc(C)c2Cl)c(Cl)c1 [Compound 34, N-(2-chloro-4,6-dimethylphenyl)-3-{[(4-chloro-3-methyl-5-isoxazolyl)amino]sulfonyl}2-thiophenecarboxamide] | 5.34 | 5.41 |
| Cc1cc(C)c(NC(=O)c2sccc2S(=O)(=O)Nc2onc(C)c2Cl)c(S(C)(=O)=O)c1 [Compound 42, 3-{[(4-chloro-3-methyl-5-isoxazolyl)amino]sulfonyl)-N-[2,4-dimethyl-6-(methylsulfonyl)phenyl]-2-thiophenecarboxamide] | 5.21 | 4.86 |
| Cc1cc2c(cc1CC(=O)c1sccc1S(=O)(=O)Nc1onc(C)c1Cl)OCO2 [N-(4-chloro-3-methyl-5-isoxazolyl)-2-{[3,4-(methylenedioxy)-6-methylphenyl)acetyl]-thiophene-3-sulfonamide, reference compound] | 6.70 | 7.05 |
